Measurements: patent US7214691B2, “2-substituted benzimidazole derivatives as selective melanin concentrating hormone receptor antagonists for the treatment of obesity and related disorders” (Schering Corporation, priority 2003, dated 2007)
pKi: −log10 of the molar value. Where two headings read alike, the source gives them in different places.

Target: T1, MCH receptor (Homo sapiens, UniProt Q99705)
T1 construct: expressed in transfected cells; host or cells: CHO cells
Experiment: MCH Receptor Binding Assay
Settings: membranes from CHO cells expressing the MCH receptor, [125I]-MCH, SPA
Experimental: MCH Receptor Binding Assay: Membranes from CHO cells expressing the MCH receptor were prepared by lysing cells with 5 mM HEPES for 15 min at 4 C. Cell lysates were centrifuged ([…], 15 min) and the pellet was resuspended in 5 mM HEPES. For each 96-well plate (Microlite, Dynex Technologies), 1 mg of cell membranes were incubated with 10 mg of wheat germ agglutinin SPA beads (Amersham) for 5 min at 4 C in a volume of 10 ml of binding buffer (25 mM HEPES, 10 mM MGCl2, 10 mM NaCl, 5 mM MnCl2, 0.1% BSA). The membrane/bead mixture was centrifuged (1500×g, 3.5 min), the supernatant was aspirated, and the pellet was resuspended in 10 ml binding buffer. The centrifugation, aspiration and resuspension were then repeated. The membrane/bead mixture (100 μl) was then added to 96-well plates containing 50 μl of 500 pM [^125I]-MCH (NEN) and […] of the appropriate concentration of compound (4× the desired final concentration). Nonspecific binding was determined by including 1 μM MCH in the binding reaction. The binding reaction was incubated at room temperature for 2 h. Plates were then analyzed in a TOPCOUNT microplate scintillation counter (Packard). Data was analyzed and Ki values were determined using GraphPad Prism.

[1] = class symbols, read-out: MCH Ki

T1 sequence (Q99705 whole entry): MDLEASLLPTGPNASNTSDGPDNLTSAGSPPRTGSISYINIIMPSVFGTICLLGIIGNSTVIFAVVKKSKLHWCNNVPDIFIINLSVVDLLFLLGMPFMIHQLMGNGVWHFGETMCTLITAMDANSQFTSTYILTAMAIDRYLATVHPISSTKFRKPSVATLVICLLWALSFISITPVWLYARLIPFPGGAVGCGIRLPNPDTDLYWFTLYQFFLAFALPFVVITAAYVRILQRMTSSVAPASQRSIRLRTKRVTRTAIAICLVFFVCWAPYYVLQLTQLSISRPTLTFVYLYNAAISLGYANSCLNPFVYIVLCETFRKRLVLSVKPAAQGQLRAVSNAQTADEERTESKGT

## CN(C)C(=O)N1CCC2(CC1)CC2(c1ccc(-c2cccc(C#N)c2)cc1)c1nc2cc(F)c(C(F)(F)F)cc2[nH]1 (centres unmarked) [Compound 27a]
[1]
  pKi: 7.30 to 7.70

## N#Cc1cccc(-c2ccc(C(=C3CCN(CC4CC4)CC3)c3nc4cc(Cl)cc(Cl)c4[nH]3)cc2)c1 [Compound 1u]
[1]
  pKi: 7.00 to 7.30

## N#Cc1cccc(-c2ccc(C(=C3CCN(Cc4ccccc4)CC3)c3nc4cc(F)ccc4[nH]3)cc2)c1 [Compound 1a]
[1]
  pKi: < 7.00

## CCN(CC)C(=O)N1CCC(=C(c2ccc(-c3cccc(C#N)c3)cc2)c2nc3cc(F)c(C(F)(F)F)cc3[nH]2)CC1 [Compound 1x]
[1]
  pKi: 7.30 to 7.70

## N#Cc1cccc(-c2ccc(C(=C3CCN(CC(=O)O)CC3)c3nc4cc(F)c(C(F)(F)F)cc4[nH]3)cc2)c1 [Compound 1z]
[1]
  pKi: > 7.70

## N#Cc1cccc(-c2ccc(C3(c4nc5cc(F)c(C(F)(F)F)cc5[nH]4)CC34CCN(CC(=O)O)CC4)cc2)c1 (centres unmarked) [Compound 28a]
[1]
  pKi: 7.30 to 7.70

## N#Cc1cccc(-c2ccc(C3(c4nc5cc(F)c(C(F)(F)F)cc5[nH]4)CC34CCN(c3nc5ccccc5s3)CC4)cc2)c1 (centres unmarked) [Compound 29c]
[1]
  pKi: < 7.00

## N#Cc1cccc(-c2ccc(C3(c4nc5cc(F)c(C(F)(F)F)cc5[nH]4)CC34CCN(c3nccs3)CC4)cc2)c1 (centres unmarked) [Compound 29a]
[1]
  pKi: < 7.00

## CN(C)C(=O)N1CCC(=C(c2ccc(-c3cccc(C#N)c3)cc2)c2nc3cc(F)c(C(F)(F)F)cc3[nH]2)CC1 [Compound 1y]
[1]
  pKi: 7.30 to 7.70

## CCN(CC)C(=O)N1CCC2(CC1)CC2(c1ccc(-c2cccc(C#N)c2)cc1)c1nc2cc(F)c(C(F)(F)F)cc2[nH]1 (centres unmarked) [Compound 27c]
[1]
  pKi: < 7.00

## N#Cc1cccc(-c2ccc(C3(c4nc5cc(Cl)c(Cl)cc5[nH]4)CC34CCN(Cc3ccccc3)CC4)cc2)c1 (centres unmarked) [Compound 23c]
[1]
  pKi: > 7.70

## N#Cc1cccc(-c2ccc(C3(c4nc5cc(F)c(C(F)(F)F)cc5[nH]4)CC34CCN(c3nc5ccc(Cl)cc5s3)CC4)cc2)c1 (centres unmarked) [Compound 29b]
[1]
  pKi: < 7.00

## N#Cc1cccc(-c2ccc(C3(c4nc5cc(F)c(C(F)(F)F)cc5[nH]4)CC34CCNCC4)cc2)c1 (centres unmarked) [Compound 24a]
[1]
  pKi: > 7.70
Numeric value in text, read-out: Ki value
  pKi: 8.77

## CC(C)(C)OC(=O)N1CCC(=C(c2ccc(-c3cccc(C#N)c3)cc2)c2nc3cc(F)c(F)cc3[nH]2)CC1 [Compound 1n]
[1]
  pKi: < 7.00

## CC(C)S(=O)(=O)N1CCC2(CC1)CC2(c1ccc(-c2cccc(C#N)c2)cc1)c1nc2cc(F)c(C(F)(F)F)cc2[nH]1 (centres unmarked) [Compound 26a]
[1]
  pKi: 7.00 to 7.30

## N#Cc1cccc(-c2ccc(C(=C3CCN(C4CCCC4)CC3)c3nc4cc(Cl)c(Cl)cc4[nH]3)cc2)c1 [Compound 1f]
[1]
  pKi: > 7.70

## N#Cc1cccc(-c2ccc(C(=C3CCN(CC4CC4)CC3)c3nc4cc(Cl)c(Cl)cc4[nH]3)cc2)c1 [Compound 1d]
[1]
  pKi: > 7.70

## CC(C)(C)OC(=O)N1CCC2(CC1)CC2(c1ccc(-c2cccc(C#N)c2)cc1)c1nc2cc(F)c(C(F)(F)F)cc2[nH]1 (centres unmarked) [Compound 23a]
[1]
  pKi: < 7.00

## N#Cc1cccc(-c2ccc(C(=C3CCN(Cc4ccccc4)CC3)c3nc4cc(F)c(Cl)cc4[nH]3)cc2)c1 [Compound 1b]
[1]
  pKi: > 7.70

## N#Cc1ccc(-c2ccc(C(=C3CCN(CC4CC4)CC3)c3nc4cc(Cl)c(Cl)cc4[nH]3)cc2)cc1 [Compound 1i]
[1]
  pKi: < 7.00

## CC(C)(C)OC(=O)N1CCC2(CC1)CC2(c1ccc(-c2cccc(C#N)c2)cc1)c1nc2cc(Cl)c(Cl)cc2[nH]1 (centres unmarked) [Compound 23b]
[1]
  pKi: < 7.00

## COc1cc(C(=C2CCNCC2)c2nc3cc(F)c(C(F)(F)F)cc3[nH]2)ccc1-c1cccc(C#N)c1 [Compound 1ab]
[1]
  pKi: < 7.00

## N#Cc1cccc(-c2ccc(C3(c4nc5cc(Cl)c(Cl)cc5[nH]4)CC34CCN(CC3CC3)CC4)cc2)c1 (centres unmarked) [Compound 25b]
[1]
  pKi: > 7.70

## CS(=O)(=O)N1CCC(=C(c2ccc(-c3cccc(C#N)c3)cc2)c2nc3cc(F)c(C(F)(F)F)cc3[nH]2)CC1 [Compound 1v]
[1]
  pKi: 7.00 to 7.30

## CN1CCC(=C(c2ccc(-c3cccc(C#N)c3)cc2)c2nc3cc(Cl)c(Cl)cc3[nH]2)CC1 [Compound 1e]
[1]
  pKi: 7.30 to 7.70

## N#Cc1cccc(-c2ccc(C(=C3CCNCC3)c3nc4cc(F)c(F)cc4[nH]3)cc2)c1 [Compound 1o]
[1]
  pKi: 7.00 to 7.30

## CS(=O)(=O)N1CCC(=C(c2ccc(-c3cccc(C#N)c3)cc2)c2nc3cc(Cl)c(Cl)cc3[nH]2)CC1 [Compound 1g]
[1]
  pKi: 7.00 to 7.30

## O=Cc1cccc(-c2ccc(C(=C3CCN(CC4CC4)CC3)c3nc4cc(Cl)c(Cl)cc4[nH]3)cc2)c1 [Compound 1k]
[1]
  pKi: 7.30 to 7.70

## Clc1cc2nc(C(=C3CCN(CC4CC4)CC3)c3ccc(-c4cccnc4)cc3)[nH]c2cc1Cl [Compound 1j]
[1]
  pKi: 7.00 to 7.30

## N#Cc1cccc(-c2ccc(C(=C3CCNCC3)c3nc4cc(Cl)c(Cl)cc4[nH]3)cc2)c1 [Compound 1c]
[1]
  pKi: > 7.70

## N#Cc1cccc(-c2ccc(C(=C3CCN(CC4CC4)CC3)c3nc4cc(F)c(F)cc4[nH]3)cc2)c1 [Compound 1q]
[1]
  pKi: 7.00 to 7.30

## COc1cc(C(=C2CCN(CC3CC3)CC2)c2nc3cc(F)c(C(F)(F)F)cc3[nH]2)ccc1-c1cccc(C#N)c1 [Compound 1aa]
[1]
  pKi: < 7.00

## Fc1cc(F)cc(-c2ccc(C(=C3CCN(CC4CC4)CC3)c3nc4cc(Cl)c(Cl)cc4[nH]3)cc2)c1 [Compound 1h]
[1]
  pKi: < 7.00

## CN1CCC(=C(c2ccc(-c3cccc(C#N)c3)cc2)c2nc3cc(F)c(F)cc3[nH]2)CC1 [Compound 1p]
[1]
  pKi: < 7.00

## N#Cc1cccc(-c2ccc(C(=C3CCNCC3)c3nc4c(Cl)cc(Cl)cc4[nH]3)cc2)c1 [Compound 1t]
[1]
  pKi: < 7.00

## N#Cc1cccc(-c2ccc(C(=C3CCNCC3)c3nc4cc(C(F)(F)F)c(F)cc4[nH]3)cc2)c1 [Compound 1r]
[1]
  pKi: > 7.70

## N#Cc1cccc(-c2ccc(C3(c4nc5cc(Cl)c(Cl)cc5[nH]4)CC34CCNCC4)cc2)c1 (centres unmarked) [Compound 24b]
[1]
  pKi: > 7.70

## Clc1cc2nc(C(=C3CCN(CC4CC4)CC3)c3ccc(-c4cccc(CN5CCC5)c4)cc3)[nH]c2cc1Cl [Compound 1m]
[1]
  pKi: 7.00 to 7.30

## CC(C)S(=O)(=O)N1CCC2(CC1)CC2(c1ccc(-c2cccc(C#N)c2)cc1)c1nc2cc(Cl)c(Cl)cc2[nH]1 (centres unmarked) [Compound 26b]
[1]
  pKi: < 7.00

## CN(C)Cc1cccc(-c2ccc(C(=C3CCN(CC4CC4)CC3)c3nc4cc(Cl)c(Cl)cc4[nH]3)cc2)c1 [Compound 1l]
[1]
  pKi: 7.30 to 7.70
